Measured values as given in patent US3969522A, “Diaryl-pyridyl-imidazole methanes for treating mycotic infections” (Bayer Aktiengesellschaft, priority 1972, dated 1976).
≈ marks a conversion by molar mass, not a printed value. Structures can show the parent of a compound that is named as a salt.

Legend:
Assay type in all cases: cell-based
[1] = test system: Trichophyton mentagrophytes; assay: series dilution test in vitro, Trichophyton mentagrophytes; conditions: Sabourauds' milieu d'epreuve, 28° C, 24 to 96 hours; for MIC: read-out: Minimum Inhibitory Concentration
Description: (§1) A. Determination of the antimycotic action spectrum in vitro by means of the series dilution test
(§2) Sabourauds' milieu d'epreuve is used as the nutrient substrate for dermatophytes and Aspergilli, and meat-broth-glucose-bouillon is used as the nutrient substrate for blastomyces. The incubation temperature is 28° C and the incubation time is 24 to 96 hours.

[2] = test system: Aspergillis niger; assay: series dilution test in vitro, Aspergillus niger; conditions: Sabourauds' milieu d'epreuve, 28° C, 24 to 96 hours; for MIC: Aspergillus niger, read-out: Minimum Inhibitory Concentration
Description: as §1, §2

[3] = test system: Candida albicans; assay: series dilution test in vitro, Candida albicans; conditions: 28° C, 24 to 96 hours; for MIC: read-out: Minimum Inhibitory Concentration
Description: as §1, §2

[4] = test system: Penicillium commune; assay: series dilution test in vitro, Penicillium commune; conditions: 28° C, 24 to 96 hours; for MIC: read-out: Minimum Inhibitory Concentration
Description: as §1, §2

Cc1ccc(C(c2ccccc2)(c2ccccn2)n2ccnc2)cc1C (stereo not drawn) [Example 1, 1-(3,4-dimethylphenyl-phenyl-2-pyridyl)-methyl-imidazole]
MIC [1]: 0.5 mg/L (≈ 1.47 µM) | MIC [2]: < 1 mg/L | MIC [3]: 1 mg/L (≈ 2.95 µM) | MIC [4]: 4 mg/L (≈ 11.8 µM)

Cc1ccc(C(c2ccccc2)(c2ccccn2)n2ccnc2)c(C)c1 (stereo not drawn) [Example 2, 1-(2,4-dimethylphenyl-phenyl-2-pyridyl)-methyl-imidazole]
MIC [1]: 0.5 mg/L (≈ 1.47 µM) | MIC [2]: 4 mg/L (≈ 11.8 µM) | MIC [3]: 10 mg/L (≈ 29.5 µM) | MIC [4]: 4 mg/L (≈ 11.8 µM)

Cc1cccc(C)c1C(c1ccccc1)(c1ccccn1)n1ccnc1 (stereo not drawn) [Example 3, 1-(2,6-dimethylphenyl-phenyl-2-pyridyl)-methyl-imidazole hydrochloride]
MIC [1]: 0.5 mg/L | MIC [2]: 4 mg/L | MIC [3]: 1 mg/L | MIC [4]: 10 mg/L

Cc1ccc(C(c2ccccc2)(c2ccncc2)n2ccnc2)c(C)c1 (stereo not drawn) [Example 4, 1-(2,4-dimethylphenyl-phenyl-4-pyridyl)-methyl-imidazole]
MIC [1]: 0.5 mg/L (≈ 1.47 µM) | MIC [2]: 4 mg/L (≈ 11.8 µM) | MIC [3]: 4 mg/L (≈ 11.8 µM) | MIC [4]: 10 mg/L (≈ 29.5 µM)

Cc1ccc(C(c2ccccc2)(c2ccncc2)n2ccnc2)cc1C (stereo not drawn) [Example 5, 1-(3,4-dimethylphenyl-phenyl-4-pyridyl)-methyl-imidazole]
Minimum Inhibitory Concentration [1]: 0.5 µg/mL | Minimum Inhibitory Concentration [2]: 1 µg/mL | MIC [3]: 1 mg/L (≈ 2.95 µM) | Minimum Inhibitory Concentration [4]: 10 µg/mL

Cc1ccc(C)c(C(c2ccccc2)(c2ccncc2)n2ccnc2)c1 (stereo not drawn) [Example 6, 1-(2,5-dimethylphenyl-phenyl-4-pyridyl)-methyl-imidazole]
MIC [1]: 0.5 mg/L (≈ 1.47 µM) | MIC [2]: 40 mg/L (≈ 118 µM) | MIC [3]: 4 mg/L (≈ 11.8 µM) | MIC [4]: 40 mg/L (≈ 118 µM)

Cc1cccc(C(c2ccccc2)(c2ccccn2)n2ccnc2)c1C (stereo not drawn) [Example 7, 1-(2,3-dimethylphenyl-phenyl-2-pyridyl)-methyl-imidazole]
Minimum Inhibitory Concentration [1]: 0.05 µg/mL | Minimum Inhibitory Concentration [2]: 0.1 µg/mL | MIC [3]: 1 mg/L (≈ 2.95 µM) | Minimum Inhibitory Concentration [4]: 1 µg/mL

Cc1cccc(C(c2ccccc2)(c2ccccn2)n2ccnc2)c1C (stereo not drawn) [Example 8, 1-(2,3-dimethylphenyl-phenyl-2-pyridyl)-methyl-imidazole 1,5-naphthalenedisulphonate]
Minimum Inhibitory Concentration [1]: 1 µg/mL | Minimum Inhibitory Concentration [2]: 1 µg/mL | Minimum Inhibitory Concentration [3]: 1 µg/mL | Minimum Inhibitory Concentration [4]: 4 µg/mL

Cc1cccc(C(c2ccccc2)(c2ccncc2)n2ccnc2)c1C (stereo not drawn) [Example 9, 1-(2,3-dimethylphenyl-phenyl-4-pyridyl)-methyl-imidazole]
MIC [1]: 0.5 mg/L (≈ 1.47 µM) | MIC [2]: 1 mg/L (≈ 2.95 µM) | MIC [3]: 1 mg/L (≈ 2.95 µM) | MIC [4]: 4 mg/L (≈ 11.8 µM)

Cc1ccc(C(c2ccccc2)(c2ccncc2)n2ccnc2)cc1C (stereo not drawn) [Example 10, 1-(3,4-dimethylphenyl-phenyl-4-pyridyl)-methyl-imidazole 1,5-naphthalenedisulphonate]
Minimum Inhibitory Concentration [1]: 10 µg/mL | Minimum Inhibitory Concentration [2]: 4 µg/mL | Minimum Inhibitory Concentration [3]: 1 µg/mL | Minimum Inhibitory Concentration [4]: 4 µg/mL

Fc1ccc(C(c2ccccc2)(c2ccccn2)n2ccnc2)cc1 (stereo not drawn) [Known Compound 1, 1-(4-fluorophenyl-phenyl-2-pyridyl)-methylimidazole, reference compound]
Minimum Inhibitory Concentration [1]: > 2 µg/mL | MIC [1]: < 4 mg/L | MIC [2]: 4 mg/L (≈ 12.1 µM) | Minimum Inhibitory Concentration [2]: 2 µg/mL | MIC [3]: 4 mg/L (≈ 12.1 µM) | Minimum Inhibitory Concentration [4]: > 2 µg/mL | MIC [4]: < 4 mg/L

FC(F)(F)c1cccc(C(c2ccccc2)(c2ccccn2)n2ccnc2)c1 (stereo not drawn) [Known Compound 2, 1-(3-trifluoromethylphenyl-phenyl-2-pyridyl)-methylimidazole, reference compound]
Minimum Inhibitory Concentration [1]: > 2 µg/mL | MIC [1]: < 4 mg/L | MIC [2]: < 4 mg/L | Minimum Inhibitory Concentration [2]: > 2 µg/mL | MIC [3]: 4 mg/L (≈ 10.5 µM) | Minimum Inhibitory Concentration [4]: > 2 µg/mL | MIC [4]: < 4 mg/L
